Measured values from US20220098197A1, “SALTS OF HETEROCYCLIC COMPOUND AND USE THEREOF” (priority 2019, published 2022).

Tested on: LPS-induced ALI mice
Experiment: LPS-induced ALI model: BALF cell counting
Format: in vivo, Balb/c mice
Protocol: Specific pathogen-free (SPF) Balb/c mice (♂/♀; 20-26 g; 8 weeks old) were purchased from Shanghai SIPPR-BK Experimental Animal Co., Ltd. Mice were kept in an isolated ventilated cage in an environment of 40-60% humidity, 24±2° C., and 12 hrs/12 hrs dark-light cycle, and had free access to food and water. The method for preparing the LPS-induced ALI model was simply described as follows. The mice were randomly divided into a control group (12 mice) and an LPS group (48 mice). The LPS group (48 mice) was further divided into four subgroups (12 mice in each subgroup). […] 24 hrs after LPS challenge, the oxygen saturation (SO2) of all mice was measured by a Moor VMS-OXY™ instrument which measured SO2 (%) in the microcirculation at the wavelength range of 500 to 650 nm. […]
The mice were euthanized to expose the trachea, and then the right lungs were lavaged three times with 0.4 mL/time of sterile normal saline containing bovine serum albumin (BSA) and 5000 IU/L heparin to collect the BALF via tracheal tube. […] The removed lung tissues were weighted after aspirating the surface blood, and the lung weight coefficient was calculated. The lung weight coefficient was an indicator of pulmonary edema, and it was measured by dividing the individual lung weight of each mouse by its total body weight.

CN([C@@H]1CCc2c(CC(=O)[O-])c3cccnc3n2C1)S(=O)(=O)c1ccc(F)cc1.[Na+] [Sodium salt hydrate]
BALF cell infiltration, performance compared with Dex (CT-NA 30 mg/kg versus 1 mg/kg Dex): essentially same performance as that of 1 mg/kg Dex
LPS-induced increase of total cells, neutrophils and macrophages in BALF (CT-NA 10 and 30 mg/kg intragastric 1 h before and 12 hrs after LPS, BALF 24 hrs after LPS, P<0.01): significantly and dose-dependently attenuated
